# Measured values from ChEMBL document CHEMBL1201861, “Genomics of Drug Sensitity in Cancer screening data, Wellcome Trust Sanger Institute”.
# System: HAL-01;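 note: growth inhibition of human HAL-01 cells, read out with a cell viability assay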
# Assay: cells
# Format: functional, cell-based, Homo sapiens
# Details: Homo sapiens, HAL-01
row,SMILES,IC50
1,Cc1cn(-c2cc(NC(=O)c3ccc(C)c(Nc4nccc(-c5cccnc5)n4)c3)cc(C(F)(F)F)c2)cn1 [NILOTINIB],> 2000 nM

# System: BE-13;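 note: growth inhibition of human BE-13 cells, measured with a cell viability assay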
# Assay: cells
# Format: functional, cell-based, Homo sapiens
# Details: Homo sapiens, BE-13
# Description: SANGER: Inhibition of human BE-13 cell growth in a cell viability assay.
row,SMILES,IC50
1,Cc1cn(-c2cc(NC(=O)c3ccc(C)c(Nc4nccc(-c5cccnc5)n4)c3)cc(C(F)(F)F)c2)cn1 [NILOTINIB],1270 nM

# System: NCI-H1299;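 note: growth inhibition of human NCI-H1299 cells, read out by a cell viability assay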
# Assay: cells
# Format: functional, cell-based, Homo sapiens
# Details: Homo sapiens, NCI-H1299
# Description: SANGER: Inhibition of human NCI-H1299 cell growth in a cell viability assay.
row,SMILES,IC50
1,Cc1cn(-c2cc(NC(=O)c3ccc(C)c(Nc4nccc(-c5cccnc5)n4)c3)cc(C(F)(F)F)c2)cn1 [NILOTINIB],> 2000 nM

# System: L-428
# Assay: cells
# Format: functional, cell-based, Homo sapiens
# Details: Homo sapiens, L-428
# Description: SANGER: Inhibition of human L-428 cell growth in a cell viability assay.
row,SMILES,IC50
1,Cc1cn(-c2cc(NC(=O)c3ccc(C)c(Nc4nccc(-c5cccnc5)n4)c3)cc(C(F)(F)F)c2)cn1 [NILOTINIB],> 2000 nM

# System: A3-KAW;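 note: growth inhibition of human A3-KAW cells, read out with a cell viability assay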
# Assay: cells
# Format: functional, cell-based, Homo sapiens
# Details: Homo sapiens, A3-KAW
# Description: SANGER: Inhibition of human A3-KAW cell growth in a cell viability assay.
row,SMILES,IC50
1,Cc1cn(-c2cc(NC(=O)c3ccc(C)c(Nc4nccc(-c5cccnc5)n4)c3)cc(C(F)(F)F)c2)cn1 [NILOTINIB],> 2000 nM

# System: A704;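 note: growth inhibition of human A704 cells, read out with a cell viability assay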
# Assay: cells
# Format: functional, cell-based, Homo sapiens
# Details: Homo sapiens, A704
# Description: SANGER: Inhibition of human A704 cell growth in a cell viability assay.
row,SMILES,IC50
1,Cc1cn(-c2cc(NC(=O)c3ccc(C)c(Nc4nccc(-c5cccnc5)n4)c3)cc(C(F)(F)F)c2)cn1 [NILOTINIB],> 2000 nM

# System: BB30-HNC;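 note: growth inhibition of the cultured cell line, read out by a cell viability assay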
# Assay: cells
# Format: functional, cell-based, Homo sapiens
# Details: Homo sapiens, BB30-HNC
# Description: SANGER: Inhibition of human BB30-HNC cell growth in a cell viability assay.
row,SMILES,IC50
1,Cc1cn(-c2cc(NC(=O)c3ccc(C)c(Nc4nccc(-c5cccnc5)n4)c3)cc(C(F)(F)F)c2)cn1 [NILOTINIB],> 2000 nM

# System: COLO-824
# Assay: cells
# Format: functional, cell-based, Homo sapiens
# Details: Homo sapiens, COLO-824
# Description: SANGER: Inhibition of human COLO-824 cell growth in a cell viability assay.
row,SMILES,IC50
1,Cc1cn(-c2cc(NC(=O)c3ccc(C)c(Nc4nccc(-c5cccnc5)n4)c3)cc(C(F)(F)F)c2)cn1 [NILOTINIB],> 2000 nM

# System: NCI-H1650;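 note: growth inhibition of human NCI-H1650 cells measured by a cell viability assay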
# Assay: cells
# Format: functional, cell-based, Homo sapiens
# Details: Homo sapiens, NCI-H1650
# Description: SANGER: Inhibition of human NCI-H1650 cell growth in a cell viability assay.
row,SMILES,IC50
1,Cc1cn(-c2cc(NC(=O)c3ccc(C)c(Nc4nccc(-c5cccnc5)n4)c3)cc(C(F)(F)F)c2)cn1 [NILOTINIB],> 2000 nM

# System: GCIY;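 note: growth inhibition of the human GCIY cell line, read out by a cell viability assay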
# Assay: cells
# Format: functional, cell-based, Homo sapiens
# Details: Homo sapiens, GCIY
# Description: SANGER: Inhibition of human GCIY cell growth in a cell viability assay.
row,SMILES,IC50
1,Cc1cn(-c2cc(NC(=O)c3ccc(C)c(Nc4nccc(-c5cccnc5)n4)c3)cc(C(F)(F)F)c2)cn1 [NILOTINIB],> 2000 nM

# System: IA-LM;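 note: cell viability assay measuring growth inhibition of human IA-LM cells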
# Assay: cells
# Format: functional, cell-based, Homo sapiens
# Details: Homo sapiens, IA-LM
# Description: SANGER: Inhibition of human IA-LM cell growth in a cell viability assay.
row,SMILES,IC50
1,Cc1cn(-c2cc(NC(=O)c3ccc(C)c(Nc4nccc(-c5cccnc5)n4)c3)cc(C(F)(F)F)c2)cn1 [NILOTINIB],> 2000 nM

# System: NCI-H82;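 note: growth inhibition of NCI-H82 cells, measured with a cell viability readout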
# Assay: cells
# Format: functional, cell-based, Homo sapiens
# Details: Homo sapiens, NCI-H82
# Description: SANGER: Inhibition of human NCI-H82 cell growth in a cell viability assay.
row,SMILES,IC50
1,Cc1cn(-c2cc(NC(=O)c3ccc(C)c(Nc4nccc(-c5cccnc5)n4)c3)cc(C(F)(F)F)c2)cn1 [NILOTINIB],> 2000 nM

# System: LS-1034
# Assay: cells
# Format: functional, cell-based, Homo sapiens
# Details: Homo sapiens, LS-1034
# Description: SANGER: Inhibition of human LS-1034 cell growth in a cell viability assay.
row,SMILES,IC50
1,Cc1cn(-c2cc(NC(=O)c3ccc(C)c(Nc4nccc(-c5cccnc5)n4)c3)cc(C(F)(F)F)c2)cn1 [NILOTINIB],> 2000 nM

# System: TE-11;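 note: growth inhibition of human TE-11 cells, read out by a cell viability assay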
# Assay: cells
# Format: functional, cell-based, Homo sapiens
# Details: Homo sapiens, TE-11
# Description: SANGER: Inhibition of human TE-11 cell growth in a cell viability assay.
row,SMILES,IC50
1,Cc1cn(-c2cc(NC(=O)c3ccc(C)c(Nc4nccc(-c5cccnc5)n4)c3)cc(C(F)(F)F)c2)cn1 [NILOTINIB],> 2000 nM

# System: OCUB-M;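 note: growth inhibition of the cancer cell line, read out through a cell viability assay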
# Assay: cells
# Format: functional, cell-based, Homo sapiens
# Details: Homo sapiens, OCUB-M
# Description: SANGER: Inhibition of human OCUB-M cell growth in a cell viability assay.
row,SMILES,IC50
1,Cc1cn(-c2cc(NC(=O)c3ccc(C)c(Nc4nccc(-c5cccnc5)n4)c3)cc(C(F)(F)F)c2)cn1 [NILOTINIB],> 2000 nM

# System: GR-ST
# Assay: cells
# Format: functional, cell-based, Homo sapiens
# Details: Homo sapiens, GR-ST
# Description: SANGER: Inhibition of human GR-ST cell growth in a cell viability assay.
row,SMILES,IC50
1,Cc1cn(-c2cc(NC(=O)c3ccc(C)c(Nc4nccc(-c5cccnc5)n4)c3)cc(C(F)(F)F)c2)cn1 [NILOTINIB],> 2000 nM

# System: BB65-RCC;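 note: growth inhibition of the cell line, measured with a cell viability assay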
# Assay: cells
# Format: functional, cell-based, Homo sapiens
# Details: Homo sapiens, BB65-RCC
# Description: SANGER: Inhibition of human BB65-RCC cell growth in a cell viability assay.
row,SMILES,IC50
1,Cc1cn(-c2cc(NC(=O)c3ccc(C)c(Nc4nccc(-c5cccnc5)n4)c3)cc(C(F)(F)F)c2)cn1 [NILOTINIB],> 2000 nM

# System: NCI-H1395;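 note: cell viability assay read-out quantifying reduced proliferation of human NCI-H1395 cells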
# Assay: cells
# Format: functional, cell-based, Homo sapiens
# Details: Homo sapiens, NCI-H1395
# Description: SANGER: Inhibition of human NCI-H1395 cell growth in a cell viability assay.
row,SMILES,IC50
1,Cc1cn(-c2cc(NC(=O)c3ccc(C)c(Nc4nccc(-c5cccnc5)n4)c3)cc(C(F)(F)F)c2)cn1 [NILOTINIB],> 2000 nM

# System: MFH-ino;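 note: growth inhibition of human MFH-ino cells, read out by a cell viability assay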
# Assay: cells
# Format: functional, cell-based, Homo sapiens
# Details: Homo sapiens, MFH-ino
# Description: SANGER: Inhibition of human MFH-ino cell growth in a cell viability assay.
row,SMILES,IC50
1,Cc1cn(-c2cc(NC(=O)c3ccc(C)c(Nc4nccc(-c5cccnc5)n4)c3)cc(C(F)(F)F)c2)cn1 [NILOTINIB],> 2000 nM

# System: L-363
# Assay: cells
# Format: functional, cell-based, Homo sapiens
# Details: Homo sapiens, L-363
# Description: SANGER: Inhibition of human L-363 cell growth in a cell viability assay.
row,SMILES,IC50
1,Cc1cn(-c2cc(NC(=O)c3ccc(C)c(Nc4nccc(-c5cccnc5)n4)c3)cc(C(F)(F)F)c2)cn1 [NILOTINIB],> 2000 nM

# System: MPP-89;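 note: growth inhibition of human MPP-89 cells, read out with a cell viability assay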
# Assay: cells
# Format: functional, cell-based, Homo sapiens
# Details: Homo sapiens, MPP-89
# Description: SANGER: Inhibition of human MPP-89 cell growth in a cell viability assay.
row,SMILES,IC50
1,Cc1cn(-c2cc(NC(=O)c3ccc(C)c(Nc4nccc(-c5cccnc5)n4)c3)cc(C(F)(F)F)c2)cn1 [NILOTINIB],> 2000 nM

# System: GOTO;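 note: growth inhibition of GOTO cells, read out by a cell viability assay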
# Assay: cells
# Format: functional, cell-based, Homo sapiens
# Details: Homo sapiens, GOTO
# Description: SANGER: Inhibition of human GOTO cell growth in a cell viability assay.
row,SMILES,IC50
1,Cc1cn(-c2cc(NC(=O)c3ccc(C)c(Nc4nccc(-c5cccnc5)n4)c3)cc(C(F)(F)F)c2)cn1 [NILOTINIB],> 2000 nM

# System: EW-24;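 note: human EW-24 cancer cell line, growth inhibition read out via a cell viability assay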
# Assay: cells
# Format: functional, cell-based, Homo sapiens
# Details: Homo sapiens, EW-24
# Description: SANGER: Inhibition of human EW-24 cell growth in a cell viability assay.
row,SMILES,IC50
1,Cc1cn(-c2cc(NC(=O)c3ccc(C)c(Nc4nccc(-c5cccnc5)n4)c3)cc(C(F)(F)F)c2)cn1 [NILOTINIB],> 2000 nM
